The text below walks through data of US9567586B2, “EpCAM aptamer for detection of cancer stem cells” (DEAKIN UNIVERSITY, priority 2012, dated 2017).

Data set [1] concerns EpCAM. The experiment in a line: Immunofluorescence staining of paraffin embedded xenograft tumour sections. Also noted: species or system human; key to Quantification of anti-EpCAM staining by immunofluorescence: ‘−’ no staining; ‘+’ faint incomplete staining in >10% of cells; ‘++’ moderate complete membrance staining; ‘+++’ strong complete membrance staining. The note with it: for Quantification of anti-EpCAM staining by immunofluorescence: U118MG xenograft. How it is done:
A: Immunofluorescence staining of breast cancer (T47D, MCF7 and MDA-MB-231), colon cancer (HT-29) and glioblastoma (U118MG) xenograft tumours by EpCAM aptamers, DT3 and 23, control aptamer and the anti-EpCAM antibody, 323/A3 (Blue: nuclei; Red: EpCAM positive staining). B: Immunohistochemistry was performed with the anti-EpCAM antibody BerEP4, and all tumours were evaluated by haematoxylin and eosin staining for morphological confirmation. Aptamer staining was performed for 15 min at 37° C., while 323/A3 staining was performed at 4° C. overnight and BerEP4 was performed at room temperature for 20 min. All fluorescent images were taken at 60×, while light microscopy images were taken at 20×. Images are representative of at least three separate experiments. Scale bar: 50 μm.
The cell lines of human origin used in this study were purchased from American type Culture Collection. They were glioblastoma U118-MG; breast carcinoma MCF-7, MDA-MB-231 and T47D; and colorectal adenocarcinoma HT-29. Cells were grown and maintained in culture with Dulbecco's Modified Eagle medium (DMEM) (Invitrogen, Victoria, Australia) supplemented with 10% fetal calf serum (MCF-7, T47D, HT-29, and U118-MG), or Roswell Park Memorial Institute 1640 (RPMI 1640) (Invitrogen) with 10% fetal calf serum (MDA-MB-231). Cells were maintained at 37 ^CC in a humidified atmosphere containing 5% CO2. For xenograft studies, single cell suspensions were harvested by trypsinisation, washed with PBS and resuspended in 0.1 mL of PBS for implantation in BALB/c-Foxn1 ^nu female mice. Once tumours had reached approximately […], they were excised and fixed in 10% neutral buffered formalin prior to processing and embedding. All animal procedures were approved by Deakin University Animal Welfare Committee, and in accordance with the Australian Code of Practice for the Care and Use of Animals for Scientific Purposes.
Sections from each of the xenograft tumours were cut at 4 μm onto polylysine coated slides prior to deparaffinisation with Histoclear and rehydration through graded ethanol. Heat induced antigen retrieval was performed in a microwave oven using Tris-EDTA buffer (10 mM Tris, 1 mM EDTA, 0.05% Tween 20, pH 9.0) for 20 min and the slides were allowed to cool prior to blocking with 0.1 mg/mL tRNA, 0.1 mg/mL salmon sperm DNA and 1 mg/mL bovine serum albumin (BSA) in phosphate buffered saline (PBS) for 20 min. Following the blocking step, slides were washed in PBS containing 0.1% Tween 20 twice for 2 min prior to incubation with either aptamer or antibody. Aptamers were prepared as previously described (Shigdar S et al, supra). Briefly, aptamers were heated to 85° C. for 5 min, allowed to cool to room temperature for 10 min and then heated at 37° C. for 15 min. Slides were incubated with aptamers at 100 nM concentration in a solution of PBS containing 5 mM MgCl2, 0.1 mg/mL tRNA, 1 mg/mL BSA, 10% dextran sulphate and 500 μg/mL heparin for 15 min at 37° C. The slides were then washed three times for 5 min each prior to incubation with Bisbenzimide Hoechst 33342 (3 μg/mL) for 10 min. Slides were then mounted using VECTASHIELD and coverslipped prior to visualisation using a Fluoview FV10i laser scanning confocal microscope. All images used for direct comparison were taken with identical exposure parameters and are presented without any digital contrast alteration or background subtraction. Antibody staining was performed using the anti-EpCAM antibody 323/A3 (ab8601, Abcam). […]

Data set [2] concerns HT-29 tumor sphere. The data set is described as follows: Penetration and retention in HT-29 tumor sphere (confocal microscopy). The data set is classed as cell-based, human. To be noted: for penetration into tumor sphere: 100 nM, 0.5-4 h incubation, sphere ~300-400 μm; for fluorescence signal retained in tumor sphere: 4 h incubation, wash, further 24 h in culture medium. How it is done:
HT-29 or HEK293T cells were cultured in stem cell culture medium (DMEM/F12 with 20 ng/ml EGF and FGF and B27). […] After incubating for 0.5, 1, 2 or 4 h, the spheres were washed twice with PBS and imaged via fluorescence confocal microscopy. A phase contrast image of the sphere was also taken for each sample. Panel A fluorescence image for antibody EpCAM, Panel B phase contrast image for tumor sphere. Panel C: fluorescence image for aptamer EpCAM 23, Panel D: phase contrast image for tumor sphere. Panel E: fluorescence image aptamer control, Panel F: phase contrast image for tumor sphere.
Tumour spheres were incubated with EpCAM antibody, aptamer-23 or control aptamer for 4 h. After washing with PBS twice, the tumor spheres were incubated with the culture medium for a further 24 h followed by confocal microscopy. Panel A: fluorescence image for antibody or aptamer. Panel B: phase contrast image for tumour sphere.
To study the ability of EpCAM aptamer or antibody to penetrate tumors, the inventors used a three-dimensional in vitro tumor sphere model. […] After incubating for the indicated time, the spheres were washed twice with PBS and imaged via fluorescence confocal microscopy. A phase contrast image of the sphere was also taken for each sample. […] A retention study was performed whereby the tumour spheres were incubated with EpCAM antibody, aptamer-23 or control aptamer for 4 h, after washing with PBS twice, the tumor spheres were incubated with the culture medium for a further 24 h followed by confocal microscopy.

For the substance “5′-ACGUAUCCCUUUUCGCGUA-3′ (RNA aptamer, fluorescent dye conjugate used, modifications not given here, further chemistry not given here) [compound 23]”, the “Quantification of anti-EpCAM staining by immunofluorescence” value in data set [1] is listed as “−”. In addition, the “staining of U118MG xenograft (in words)” value in data set [1] (U118MG xenograft that does not express EpCAM) is recorded as “no staining detectable”. Besides, in data set [2], the “penetration into tumor sphere” value was “could penetrate into the core or center of the tumor sphere” and the “fluorescence signal retained in tumor sphere” value was “clearly detectable signal”. The “retention by the tumor cells” value in data set [2] (after 4 h incubation and wash) was “at least 24 hours”.
With “5′-DY647-mGCmGACUmGmGUUmACCCmGmGUCmGdT-3′ (GCGACUGGUUACCCGGUCGN; 5' DY647, 2'-O-methyl, 3' dT, further chemistry not given here) [Control]”, the “Quantification of anti-EpCAM staining by immunofluorescence” value in data set [1] is “−”. In data set [2], the “penetration into tumor sphere” value is “only limited non-specific binding” and the “fluorescence signal retained in tumor sphere” value is reported as “very weak signal”.
